System: Human Pan T cells
Test: IL2 & IFN-γ released by human pan T cell (ELISA)
Assay type: cell-based
Conditions: for EC50 / Human Pan T cells EC2x (nM, IL-2): IL-2, anti-CD3/CD28 stimulation, 48 hours; for Human Pan T cells EC2x (nM, IL-2): concentration giving 200% response (2 folds) over DMSO control; for Max fold change: IL-2 response over DMSO control; for Max fold change / efficacy in inducing IL-2 production: human pan T cells
Source text: This example is an assay method that can be used to determine compound effects on IL2 & IFN-γ release using pan T cells and ELISA assay format.
Procedures for Pan T isolation and Reagent preparation (Day 0): • 1. Cell Growth Medium: • RPMI1640: ATCC, Cat# 30-2001 • 10% FBS: Gibco, Cat# 10099141 • 1% Pen-Strep: Gibco, Cat # 15140122 • 1% Non-essential amino: Gibco, Cat #11140050 • Beta- Mercaptoethanol: Gibco, Cat#21985023 • 2. Pan T isolation buffer preparation: • Prepare a solution containing phosphate-buffered saline (PBS), pH 7.2, 0.5% bovine serum albumin (BSA), and 2 mM EDTA by diluting MACS® BSA Stock Solution (# 130-091-376) 20 times with autoMACS® Rinsing Solution. Keep buffer at 4° C. Degas buffer before use, as air bubbles could block the column.
• 3. Thawing of frozen PBMC • 1) Pre-heat medium at 37° C. water bath. • 2) Rapidly thaw cells in 37° C. water bath. • 3) Add the pre-warmed medium into 15 mL tube. Transfer cells to the tube. • 4) 300 × g centrifuge for 8 min. (centrifuge increase 0, decrease 0). • 5) Wash the PBMC using Rinsing buffer. • 6) Centrifuge PBMC at 300 × g for 8 min, wash it twice (centrifuge increase 9, decrease 1). • 7) Resuspend the cells with Pan T cells isolation buffer and count cells number. • 4. Pan T cells isolation: • Cell staining with microbead cocktail • 1) Prepare cells and determine cell number. Filter cells by 70 µm cell strainer. • 2) Resuspend cell pellet in 40 µL of buffer per 10^7 total cells. • 3) Add 10 µL of Pan T Cell Biotin-Antibody Cocktail per 10^7 total cells. • 4) Mix well and incubate for 10 minutes in the refrigerator (ice). • 5) Add 30 µL of buffer per 10^7 total cells. • 6) Add 20 µL of Pan T Cell MicroBead Cocktail per 10^7 total cells. • 7) Mix well and incubate for 15 minutes in the refrigerator (ice). • 8) Proceed to subsequent magnetic cell separation.
Subsequent manual cell separation: • 1) Place LS Column in the magnetic field of a suitable MACS Separator. For details refer to the respective MACS Column data sheet. • 2) Prepare column by rinsing with 3 mL of buffer. • 3) Apply cell suspension onto the column. Collect flow-through, which represents the enriched T cells. • 4) Wash column with 5 mL of buffer. Collect unlabeled cells that pass through, representing the enriched T cells.
Reminder: Always wait until the column reservoir is empty before proceeding to the next step. • 5. Pan T cell FACS: • 1) Take out 50 µL of PBMC and Pan T cells to FACS tubes respectively. • 2) Incubate cells with anti-human CD3/CD4/CD8 antibodies (1 µL/1 µL/1 µL /tube) for 20 min at 4° C. For unstained control, incubate cells with FACS staining buffer. • 3) Wash 2 times with cold staining buffer (PBS with 0.2%BSA and 1 mM EDTA). • 4) Run FACS. Gate CD3^+, CD3^+CD4^+, and CD3^+CD8^+ population for % analysis. • 5) If the purity of Pan T cells is higher than 90%, dilute cell suspension to 1 million cells/mL with the appropriate volume of Cell Culture Media. • 6) Dispense the cell suspension into a sterile, disposable reservoir for future use.
Procedures for preparation of compounds and anti-human CD3/CD28 (Day 0): • 1. Compound preparation • Compound serial dilution (source plate 1000×) • Compounds are solubilized in 100% DMSO to a concentration of 10 mM. Then they were 3-fold serially diluted to 8-point doses. • 4× Compound dose preparation (inter plate: Corning-3599): • Prepare 4× compound solution in culture medium. Pipet up and down. For the ZPE control, prepare 0.4% DMSO (4×) in culture medium. For the HPE control, prepare 0.4 µM of RGT003-026 (4×) in culture medium. • 2. Anti-human CD3 (stock conc. 6.76 mg/ml): stored at 4° C. • 1) Dilute anti-human CD3 with PBS to final conc. of 0.5 µg/mL. • 2) Add 50 µL /well of CD3 to each well, except for the positive and negative control wells. […] Rinse each well twice with 200 µL of sterile PBS each time. • 3. […]

In the case of `COc1cc2c(cc1Nc1ncc(Cl)c(N3CC(C)(CC(=O)O)c4ccccc43)n1)CN(C)CC2` (single isomer, unassigned) [Example 2, (R)-2-(1-(5-chloro-2-((6-methoxy-2-methyl-1,2,3,4-tetrahydroisoquinolin-7-yl)amino)pyrimidin-4-yl)-3-methylindolin-3-yl)acetic acid or (S)-2-(1-(5-chloro-2-((6-methoxy-2-methyl-1,2,3,4-tetrahydroisoquinolin-7-yl)amino)pyrimidin-4-yl)-3-methylindolin-3-yl)acetic acid], the EC50 (Homo sapiens, T-cell) is reported as 16.2 nM, the “Human Pan T cells EC2x (nM, IL-2)” value is reported as 12.5 (N = 10) nM and the Max fold change is reported as 3.2 (N = 10). The “efficacy in inducing IL-2 production” value was “good efficacy”.

In the case of `CN1CCc2cc(F)c(Nc3ncc(Cl)c(N4C[C@](C)(CC(=O)O)c5ccccc54)n3)cc2C1` (single isomer, unassigned) [Example 5, (R)-2-[1-[5-chloro-2-[(6-fluoro-2-methyl-3,4-dihydro-1H-isoquinolin-7-yl)amino]pyrimidin-4-yl]-3-methyl-indolin-3-yl]acetic acid or (S)-2-[1-[5-chloro-2-[(6-fluoro-2-methyl-3,4-dihydro-1H-isoquinolin-7-yl)amino]pyrimidin-4-yl]-3-methyl-indolin-3-yl]acetic acid], the EC50 is reported as 17.4 nM, the “Human Pan T cells EC2x (nM, IL-2)” value is reported as 7.5 nM and the Max fold change is reported as 3.88. The “efficacy in inducing IL-2 production” value was “good efficacy”.

For `COc1cc2c(cc1Nc1ncc(Cl)c(N3CC(C(=O)O)c4ccccc43)n1)CN(C)CC2` (stereo not shown) [Compound 7, reference compound], the EC50 (Homo sapiens, T-cell) was 278 nM, the “Human Pan T cells EC2x (nM, IL-2)” value was 338 (N = 6) nM and the Max fold change was 3.2 (N = 6).

`COc1cc2c(cc1Nc1ncc(Cl)c(N3CC(CC(=O)O)c4ccccc43)n1)CN(C)CC2` (stereo not shown) [Compound 8, reference compound] was tested, and the EC50 (Homo sapiens, T-cell) was 275 nM, the “Human Pan T cells EC2x (nM, IL-2)” value was 240 (N = 2) nM and the Max fold change was 3.29 (N = 2).

`COc1cc2c(cc1Nc1ncc(Cl)c(N3CC(C)(CC(=O)O)c4ccc(F)cc43)n1)CN(C)CC2` (stereo not shown) [Compound 10, reference compound] was tested, and the EC50 (Homo sapiens, T-cell) was 17.4 nM, the “Human Pan T cells EC2x (nM, IL-2)” value was 15.6 (N = 5) nM and the Max fold change was 3.05 (N = 5).

For `COc1cc2c(cc1Nc1ncc(Cl)c(N3CC(C)(CC(=O)O)c4ccccc43)n1)CN(C)CC2` (stereo not shown) [Example 1, 2-(1-(5-chloro-2-((6-methoxy-2-methyl-1,2,3,4-tetrahydroisoquinolin-7-yl)amino)pyrimidin-4-yl)-3-methylindolin-3-yl)acetic acid], the EC50 (Homo sapiens, T-cell) was 50 nM, the “Human Pan T cells EC2x (nM, IL-2)” value was 28 (N = 5) nM and the Max fold change was 3.98 (N = 5). For the same compound, the “efficacy in inducing IL-2 production” value was “good efficacy”.

With `CN1CCc2cc(F)c(Nc3ncc(Cl)c(N4CC(C)(CC(=O)O)c5ccccc54)n3)cc2C1` (stereo not shown) [Example 4, 2-(1-(5-chloro-2-((6-fluoro-2-methyl-1,2,3,4-tetrahydroisoquinolin-7-yl)amino)pyrimidin-4-yl)-3-methylindolin-3-yl)acetic acid] the EC50 (Homo sapiens, T-cell) was 31.5 nM, the “Human Pan T cells EC2x (nM, IL-2)” value was 20.5 (N = 2) nM and the Max fold change was 3.84 (N = 2). For the same compound, the “efficacy in inducing IL-2 production” value was “good efficacy”.

Source: patent US20230339896A1, “HPK1 INHIBITORS AND USES THEREOF” (QILU REGOR THERAPEUTICS INC., priority 2020, published 2023)
